Source: publication PMC5290327, “SC83288 is a clinical development candidate for the treatment of severe malaria” (Nature Communications, 2017)
Values joined by “and” are separate entries in the source; they are usually repeats but may differ in a detail not shown here. Equal values may be shown once.

Legend:
[1] = Plasma protein binding, rapid equilibrium dialysis; type: in vitro ADME; conditions: 10 μM
Method: The study was carried out by Novamass Ltd (Oulu, Finland). The plasma protein binding of SC83288 was determined in human rat, mouse and cynomolgus plasma, using a method based on rapid equilibrium dialysis and LC/MS/MS analysis. Briefly, plasma from the different species was incubated with a final concentration of SC83288 of 10 μM for 4 h at 37 °C in a rapid equilibrium dialysis device. Proteins were then precipitated by acetonitrile addition containing a phenacetin internal standard. After centrifugation (10,000g) the supernatants were analysed by LC/MS/MS to obtain the protein unbound fraction of the analyte substance.

[2] = target: T1, MC4 (h) (Homo sapiens, UniProt P32245); experiment: Radioligand binding
T1 construct: Cerep

[3] = target: T2, GAL2 (h) (Homo sapiens, UniProt O43603); experiment: Radioligand binding
T2 construct: Cerep

[4] = target: T3, MT1 (ML1A) (h) (Homo sapiens, UniProt P48039); experiment: Radioligand binding
T3 construct: Cerep

[5] = test system: P. falciparum strain FCR3; experiment: Growth inhibition assay; type: cell-based; conditions: Plasmodium falciparum
[6] = test system: P. falciparum strain NF54; experiment: Growth inhibition assay; type: cell-based; conditions: Plasmodium falciparum
[7] = test system: P. falciparum strain W2; experiment: Efficacy in the Pf/NSG mouse model; type: in vivo, Plasmodium falciparum; conditions: W2, humanized NSG mouse
[8] = test system: FLT3(ITD); experiment: KINOMEscan; type: binding, human; conditions: 10 μM
Method: The KINOMEscan was carried out by Ambit (San Diego, USA) according to a previously established protocol. The experiment was based on a competition binding assay that quantitatively measures the ability of a compound to compete with an immobilized, active-site directed ligand. The assay is performed by combining three components: DNA-tagged kinase; immobilized ligand; and a test compound. The ability of the test compound to compete with the immobilized ligand is measured via quantitative PCR of the DNA tag.
For most assays, kinase-tagged T7 phage strains were grown in parallel in 24-well blocks in an Escherichia coli host derived from the BL21 strain. E. coli were grown to log-phase and infected with T7 phage from a frozen stock and incubated with shaking at 32 °C until lysis (90–150 min). The lysates were centrifuged (6,000g) and filtered (0.2 μm) to remove cell debris. The remaining kinases were produced in HEK-293 cells (Sigma Aldrich, catalogue number: 85120602) and subsequently tagged with DNA for quantitative PCR detection. […] The liganded beads were blocked with excess biotin and washed with blocking buffer (SeaBlock (Pierce), 1% bovine serum albumin, 0.05% Tween 20 and 1 mM dithiothreitol) to remove unbound ligand and to reduce non-specific phage binding. […] The kinase concentration in the eluates was measured by quantitative PCR.

T1 sequence (P32245 whole entry): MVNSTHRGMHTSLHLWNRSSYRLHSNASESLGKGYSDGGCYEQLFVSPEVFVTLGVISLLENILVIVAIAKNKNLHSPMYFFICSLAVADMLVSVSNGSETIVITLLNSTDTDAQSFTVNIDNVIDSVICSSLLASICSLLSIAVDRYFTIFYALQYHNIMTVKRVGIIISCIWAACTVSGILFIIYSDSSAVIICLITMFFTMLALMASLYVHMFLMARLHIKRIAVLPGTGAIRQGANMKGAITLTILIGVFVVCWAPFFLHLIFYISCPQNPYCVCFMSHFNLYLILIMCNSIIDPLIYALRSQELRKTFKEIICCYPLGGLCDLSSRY
T2 sequence (O43603 whole entry): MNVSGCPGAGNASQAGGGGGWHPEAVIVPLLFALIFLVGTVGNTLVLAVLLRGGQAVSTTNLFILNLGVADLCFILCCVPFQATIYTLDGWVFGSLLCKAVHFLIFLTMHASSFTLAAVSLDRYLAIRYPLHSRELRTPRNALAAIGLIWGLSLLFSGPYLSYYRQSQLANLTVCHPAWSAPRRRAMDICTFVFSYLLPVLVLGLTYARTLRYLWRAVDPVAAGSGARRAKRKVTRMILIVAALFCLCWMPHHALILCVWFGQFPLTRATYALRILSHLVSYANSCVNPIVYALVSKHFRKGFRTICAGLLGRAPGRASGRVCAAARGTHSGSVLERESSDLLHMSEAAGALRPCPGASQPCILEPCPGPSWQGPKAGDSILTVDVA
T3 sequence (P48039 whole entry): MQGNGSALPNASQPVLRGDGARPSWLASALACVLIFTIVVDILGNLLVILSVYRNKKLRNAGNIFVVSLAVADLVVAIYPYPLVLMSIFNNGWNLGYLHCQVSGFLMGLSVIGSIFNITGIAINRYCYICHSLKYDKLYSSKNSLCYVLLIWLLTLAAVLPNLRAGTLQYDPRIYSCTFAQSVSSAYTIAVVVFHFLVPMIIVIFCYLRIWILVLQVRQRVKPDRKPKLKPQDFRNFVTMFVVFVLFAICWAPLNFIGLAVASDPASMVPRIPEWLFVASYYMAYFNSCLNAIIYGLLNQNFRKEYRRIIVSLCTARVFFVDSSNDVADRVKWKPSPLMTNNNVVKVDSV

SMILES: COC(=O)N1CCN(C(=N)c2cccc(NC(=O)Nc3ccc(S(=O)(=O)NCc4ccc(S(N)(=O)=O)cc4)cc3)c2)CC1 [SC83288, methyl 4-(imino(3-(3-(4-(N-(4-sulfamoylbenzyl)sulfamoyl)phenyl)ureido)phenyl)methyl) piperazine-1-carboxylate]
- Bound fraction ([1]; cynomolgus plasma): 82 ± 2.8% and 82%
- Bound fraction ([1]; human plasma): 78 ± 1.3% and 78%
- Bound fraction ([1]; mouse plasma): 89 ± 2.2% and 89%
- Bound fraction ([1]; rat plasma): 80 ± 0.6%
- Inhibition of control specific binding [2]: 4%
- Inhibition of control specific binding [3]: 4%
- Inhibition of control specific binding [4]: -16%
- IC50 [5]: 6 ± 1 nM
- IC50 [6]: 2 ± 1 nM

SMILES: CCCCN1CCN(C(=N)c2cccc(NC(=O)Nc3ccc(S(=O)(=O)NCc4ccc(S(N)(=O)=O)cc4)cc3)c2)CC1 [SC81458, 4-(3-(3-((4-butylpiperazin-1-yl)(imino)methyl)phenyl)ureido)-N-(4-sulfamoylbenzyl) benzenesulfonamide]
- In vivo logPRR [7]: 5.3
- Inhibition of control specific binding [2]: -10%
- Inhibition of control specific binding [3]: -15%
- Inhibition of control specific binding [4]: -5%
- IC50 [5]: 13 ± 8 nM
- IC50 [6]: 0.4 ± 0.05 nM
- Remaining enzyme activity [8]: 85%
